Series [1] concerns volunteers with alopecias. Description: 3-month clinical test of a hair restorer lotion in volunteers with alopecias. The format is in vivo, human. Conditions: for Therapeutic efficacy (Number of volunteers) Recovery / Therapeutic efficacy (Number of volunteers) Moderate recovery / Therapeutic efficacy (Number of volunteers) Not effected / Therapeutic efficacy (Number of volunteers) Unfavorable: 3-month, lotion with 1.0 part of ingredient, 3 times a day; for Therapeutic efficacy (Number of volunteers) Recovery: hair newly regenerated, apparently free from alopecia; for Therapeutic efficacy (Number of volunteers) Moderate recovery: moderate hair regeneration, no recurrence of alopecia; for Therapeutic efficacy (Number of volunteers) Not effected: no regeneration of hair; for Therapeutic efficacy (Number of volunteers) Unfavorable: side effect or acceleration of alopecia found; for cure rate (%): percentage of volunteers with recovery and moderate recovery against total number of each group. The source says:
Based on the results in Experiment 1, 20 randomly chosen volunteers with alopecias (10 men and 10 women) as the recipient received 3-month clinical test. The volunteers were 15-66 years old.
The symptom of the volunteers, who had received a pharmacotherapy or physiotherapy at a department of dermatology, were the male alopecia such as senile alopecia and alopecia prematura, and alopecia areata such as multiple alopecia areata and malignant alopecia areata.
Since the symptom of the volunteers with a slight alopecia areata may be spontaneously recovered, the volunteers with a relatively small alopecic site and those with the atrophia cutis or atrophic pores which were not clinically observed were excluded in this Experiment.
The procedure of therapeutic treatment used in this Experiment is carried out according to conventional procedure:
Forty-five parts of ethanol, 2 parts of glycerine, 55 parts of refined water, and 1.0 part of 2-O-α-D-glucosyl-L-ascorbic acid or α-glucosyl bioflavonoid prepared by the method in Example of Preparation 2, 4, 6 or 8, were mixed, and the mixture was adjusted to pH 6.7 by the addition of 6N sodium hydroxide to obtain a hair restorer for external application in lotion form. When the volunteers received a physical examination, their affected sites were applied a thin coat of the hair restorer, massaged and exposed to an artificial sunlight. Furthermore, the volunteers were instructed to apply the hair restorer to the affected sites 3 times a day at home.
As control, a hair restorer for external application containing intact L-ascorbic acid or bioflavonoid in place of 2-O-α-D-glucosyl-L-ascorbic acid or α-glucosyl bioflavonoid in the above hair restorer was used.

The next series concerns rabbits. Description: Hair regeneration on depilated dorsum of rabbits, lotion applied once daily. Conditions: 1% in 50% aqueous ethanol with 2% propyleneglycol, pH 6.7, 1ml once every day, difference to untreated area; for Mean remainder of hair length (mm) 10th (day): 10th day after application; for Mean remainder of hair length (mm) 20th (day): 20th day after application; for Mean remainder of hair length (mm) 30th (day): 30th day after application. The class given is in vivo. How it is done:
Either of an α-glycosyl-L-ascorbic acid or an α-glycosyl bioflavonoid prepared by the method in Example of Preparation 1-8 was dissolved to give a concentration of 1% in a 50% aqueous ethanol solution containing 2% propyleneglycol, and the mixture was adjusted to pH 6.7 by the addition of 6N sodium hydroxide to obtain a solution in hair lotion form. As control, a solution in hair lotion form was prepared similarly as above, except that α-glycosyl-L-ascorbic acid and α-glycosyl bioflavonoid were replaced with either of intact L-ascorbic acid, bioflavonoid and refined water.
The dorsum surgace of rabbits was sectioned into four areas, 5cm^2 each, i.e. two areas near at head side and two areas near at tail side which were respectively bisymmetrical about the vertebral columns of the rabbits, and the four areas were depilated by applying thereto silver cream (a depilatory agent) and subjecting them to brief standing. The depilated areas were first sufficiently washed with water, then the depilated areas of the right area near at head side, the left area near at head side, and the right area near at tail side were respectively applied once every day by using a paintbrush with 1ml of the test solution, 1ml of the control solution containing refined water, and 1ml of the control solution containing L-ascorbic acid or bioflavonoid. Furthermore, the left area near at tail side was untreated.
The application of each solution was started on the second day after the depilation, and the newly regenerated hairs were depilated to count on the 10th, 20th and 30th days after the application. The length of 10 coarse hairs regenerated in each area was measured with a micromanipulator, and expressed by the mean remainder of hair length (mm) between the hair length in the area which had been applied with a sample solution and that in the area which had been untreated.
In addition, it has been known that the growth rates of hairs in the bisymmetrical dorsum surfaces about the vertebral column of a rabbit is in the same level, and those in both sexes are also in the same level.

Series [2] relates to α-glucosidase which had been extracted from a pig liver.

As for `O=C1O[C@H]([C@@H](O)CO)C(O)=C1O[C@H]1O[C@H](CO)[C@@H](O)[C@H](O)[C@H]1O` [2-O-α-D-Glucosyl-L-ascorbic acid], in series [1], the “Therapeutic efficacy (Number of volunteers) Recovery” value is 6 Number of volunteers, the “Therapeutic efficacy (Number of volunteers) Moderate recovery” value is 10 Number of volunteers, the “Therapeutic efficacy (Number of volunteers) Not effected” value was 4 Number of volunteers and the “Therapeutic efficacy (Number of volunteers) Unfavorable” value is 0 Number of volunteers. In addition, in series [1], the “cure rate (%)” value was determined as 80%. Moreover, in the series on rabbits, the “Mean remainder of hair length (mm) 10th (day)” value was found to be 2.4 mm, the “Mean remainder of hair length (mm) 20th (day)” value is on record as 6.8 mm and the “Mean remainder of hair length (mm) 30th (day)” value turned out to be 6.9 mm.
Turning to `COc1ccc(C2CC(=O)c3c(O)cc(OC4OC(COC5OC(C)C(O)C(O)C5O)C(O)C(O)C4O)cc3O2)cc1O` (stereo not drawn) [Hesperidin, reference compound], in series [1], the “Therapeutic efficacy (Number of volunteers) Recovery” value is 0 Number of volunteers, the “Therapeutic efficacy (Number of volunteers) Moderate recovery” value is 3 Number of volunteers, the “Therapeutic efficacy (Number of volunteers) Not effected” value is recorded as 12 Number of volunteers and the “Therapeutic efficacy (Number of volunteers) Unfavorable” value is given as 5 Number of volunteers. Also, in the series with rabbits, the “Mean remainder of hair length (mm) 10th (day)” value amounted to 0.1 mm, the “Mean remainder of hair length (mm) 20th (day)” value was 0.5 mm and the “Mean remainder of hair length (mm) 30th (day)” value is listed as 0.2 mm.
As for `O=C1O[C@H]([C@@H](O)CO)C(O)=C1O` [L-Ascorbic acid, L-ascorbic acid, reference compound], in series [1], the “Therapeutic efficacy (Number of volunteers) Recovery” value was 0 Number of volunteers, the “Therapeutic efficacy (Number of volunteers) Moderate recovery” value is reported as 3 Number of volunteers, the “Therapeutic efficacy (Number of volunteers) Not effected” value is on record as 11 Number of volunteers and the “Therapeutic efficacy (Number of volunteers) Unfavorable” value was 6 Number of volunteers. In addition, in the series with rabbits, the “Mean remainder of hair length (mm) 10th (day)” value is 0.1 mm, the “Mean remainder of hair length (mm) 20th (day)” value is -0.2 mm and the “Mean remainder of hair length (mm) 30th (day)” value was 0.5 mm.
Turning to `C[C@@H]1O[C@@H](O[C@H]2[C@H](Oc3cc(O)c4c(c3)O[C@H](c3ccc(O)cc3)CC4=O)O[C@H](CO)[C@@H](O)[C@@H]2O)[C@H](O)[C@H](O)[C@H]1O` [Naringin, reference compound], in series [1], the “Therapeutic efficacy (Number of volunteers) Recovery” value is reported as 0 Number of volunteers, the “Therapeutic efficacy (Number of volunteers) Moderate recovery” value is 5 Number of volunteers, the “Therapeutic efficacy (Number of volunteers) Not effected” value is listed as 10 Number of volunteers and the “Therapeutic efficacy (Number of volunteers) Unfavorable” value is recorded as 5 Number of volunteers. For the same molecule, in the series with rabbits, the “Mean remainder of hair length (mm) 10th (day)” value was found to be 0.1 mm, the “Mean remainder of hair length (mm) 20th (day)” value was determined as 0.5 mm and the “Mean remainder of hair length (mm) 30th (day)” value is -0.2 mm.
In the case of `C[C@@H]1O[C@@H](OC[C@H]2O[C@@H](Oc3c(-c4ccc(O)c(O)c4)oc4cc(O)cc(O)c4c3=O)[C@H](O)[C@@H](O)[C@@H]2O)[C@H](O)[C@H](O)[C@H]1O` [Rutin, 3-[[6-O-(6-deoxy-α-L-mannopyranosyl)-β-D-glucopyranosyl)]oxy-2-(3,4-dihydroxyphenyl)-5,7-dihydroxy-4H-1-benzopyran-4-one, reference compound], in series [1], the “Therapeutic efficacy (Number of volunteers) Recovery” value was 0 Number of volunteers, the “Therapeutic efficacy (Number of volunteers) Moderate recovery” value is on record as 4 Number of volunteers, the “Therapeutic efficacy (Number of volunteers) Not effected” value is given as 13 Number of volunteers and the “Therapeutic efficacy (Number of volunteers) Unfavorable” value is reported as 3 Number of volunteers. Further, in the series on rabbits, the “Mean remainder of hair length (mm) 10th (day)” value is 0.3 mm, the “Mean remainder of hair length (mm) 20th (day)” value was found to be 0.9 mm and the “Mean remainder of hair length (mm) 30th (day)” value was 0.5 mm.
For α-Glucosyl hesperidin, in series [1], the “Therapeutic efficacy (Number of volunteers) Recovery” value was 4 Number of volunteers, the “Therapeutic efficacy (Number of volunteers) Moderate recovery” value was 11 Number of volunteers, the “Therapeutic efficacy (Number of volunteers) Not effected” value is 5 Number of volunteers and the “Therapeutic efficacy (Number of volunteers) Unfavorable” value is on record as 0 Number of volunteers. Further, the “cure rate (%)” value in series [1] was 75%. Moreover, the “hydrolysis by α-glucosidase” value in series [2] was “formed hesperidin and D-glucose”. Also, in the series on rabbits, the “Mean remainder of hair length (mm) 10th (day)” value is recorded as 2.3 mm, the “Mean remainder of hair length (mm) 20th (day)” value worked out at 7.4 mm and the “Mean remainder of hair length (mm) 30th (day)” value was determined as 6.7 mm.
As for α-Glucosyl naringin, in series [1], the “Therapeutic efficacy (Number of volunteers) Recovery” value is reported as 4 Number of volunteers, the “Therapeutic efficacy (Number of volunteers) Moderate recovery” value was 9 Number of volunteers, the “Therapeutic efficacy (Number of volunteers) Not effected” value is listed as 7 Number of volunteers and the “Therapeutic efficacy (Number of volunteers) Unfavorable” value is on record as 0 Number of volunteers. Also, in series [1], the “cure rate (%)” value was determined as 65%. Moreover, the “hydrolysis by α-glucosidase” value in series [2] was “hydrolyzed the α-glucosyl naringin into naringin and D-glucose”. Further, in the series with rabbits, the “Mean remainder of hair length (mm) 10th (day)” value worked out at 2.1 mm, the “Mean remainder of hair length (mm) 20th (day)” value is listed as 6.6 mm and the “Mean remainder of hair length (mm) 30th (day)” value was 6.3 mm.
As to α-Glucosyl rutin, in series [1], the “Therapeutic efficacy (Number of volunteers) Recovery” value is given as 6 Number of volunteers, the “Therapeutic efficacy (Number of volunteers) Moderate recovery” value was 12 Number of volunteers, the “Therapeutic efficacy (Number of volunteers) Not effected” value is 2 Number of volunteers and the “Therapeutic efficacy (Number of volunteers) Unfavorable” value is 0 Number of volunteers. Besides, in series [1], the “cure rate (%)” value was 90%. Besides, the “hydrolysis by α-glucosidase” value in series [2] is “hydrolyzed into rutin and D-glucose”. Further, in the series with rabbits, the “Mean remainder of hair length (mm) 10th (day)” value was found to be 2.5 mm, the “Mean remainder of hair length (mm) 20th (day)” value turned out to be 8.2 mm and the “Mean remainder of hair length (mm) 30th (day)” value is on record as 7.6 mm.

The record behind these values is EP0461827B1, “Hair restorer” (KABUSHIKI KAISHA HAYASHIBARA SEIBUTSU KAGAKU KENKYUJO, priority 1990, dated 1991).
